Experimental findings from US20140066362A1, “METHOD FOR TREATING INFECTIONS BY TARGETING MICROBIAL H2S-PRODUCING ENZYMES” (NEW YORK UNIVERSITY, priority 2011, published 2014) are described below.

The test system of assay [1] is CBS/CSE. The class given is cell-based, B. anthracis, S. aureus, P. aeruginosa. Particulars: chemical inhibition of CSE (PAG) or CBS (AOAA), 18 hours culture.
In assay [2] the test system is Wt E. coli cells. In kind it is cell-based. Particulars: then H2O2 2 mM for 10 min.
Assay [3] relates to E. coli cells. The class given is cell-based. The following applies: pretreatment for 3 min, 2,2′-dipyridyl 0.05 mM or thiourea 15 mM, then Gm.
In assay [4] the test system is recA′::gfp E. coli. The class given is cell-based. The following applies: NaHS 200 μM, aspartate-treated cells.
Assay [5] has as its system pBR322 plasmid DNA. Nature of the assay: Electrophoresis assay of DNA damage in vitro (Fenton reaction). The following applies: NaHS:Fe3+ 6:1, with Cys and H2O2, pH 8.
The test system of assay [6] is E. faecium A2373. In words: MIC of antibiotics with or without PAG/AOAA. In kind it is cell-based. As for the experimental part:
(§1) E. faecalis (ATCC 29212) cultures were prepared at initial inoculums of ˜5×10^5 CFU/ml in Mueller-Hinton II Broth (cation-adjusted). Aliquots of 190 μl were dispensed to each well of a fresh set of plates, and 10 μl of an antibiotic solution (levofloxacin, meropenem, gentamicin, piperacillin, linezolid, cefepime, daptomycin, vancomycin, or chloramphemicol) were transferred to the corresponding wells in each bacterial plate (FIG. 13). For each antibiotic, the starting concentration was 2×MIC (minimum inhibitory concentration) with serial ½ dilutions. Two sets of dilutions were prepared, and to one of them 0.1 mM AOAA was added. The resulting plates were kept at 37° C. and 85% humidity for 20 hours. All nine antibiotics tested were potentiated by AOAA, with respective MICs dropped from 8-fold to 32-fold (FIG. 13).
(§2) Minimum inhibitory concentration (MIC) determination was conducted as described in Example 7, above. To assess antibiotic potentiation by AOAA and PAG, MIC was determined for nine antibiotics (levofloxacin, meropenem, gentamicin, piperacillin, linezolid, cefepime, daptomycin, vancomycin, and chloramphemicol) and four bacterial strains (E. faecium (A2373), E. faecalis ([…]), S. pneumoniae (ATCC 49619), and P. aeruginosa (PAO1)) in the presence of antibiotic alone, 1 mM PAG, 0.1 mM AOAA, or 0.5 mM PAG+0.05 mM AOAA. The smaller the MIC value, the stronger the effect of antibiotic potentiation.

The subject of assay [7] is P. aeruginosa PAO1. In words: MIC of antibiotics with or without PAG/AOAA. In kind it is cell-based. As to the method: as §2
In assay [8] the test system is S. pneumoniae ATCC49619. Nature of the assay: MIC of antibiotics with or without PAG/AOAA. The class given is cell-based. As to the method: as §2
In assay [9] the test system is E. faecalis ATCC29212. Nature of the assay: MIC of antibiotics with or without PAG/AOAA. The class given is cell-based. As for the experimental part:
Bacterial cultures were prepared at initial inoculums of ˜5×10^5 CFU/ml, and aliquots of 190 μl per well were dispensed. Ten μl of the indicated antibiotic solutions were added to each well. The starting concentration for each antibiotic solution was 2×MIC, with serial ½ dilutions. Two sets of dilutions were prepared, and 0.1 mM AOAA was added to one set. The plates were kept at 37° C. and 85% humidity for 20 hours.
as §1, §2

The subject of assay [10] is E. coli ΔsseA (3MST-deficient) strain. In kind it is cell-based. Particulars: Table 1; relative values of growth inhibition (negative numbers), ΔsseA vs wt E. coli.
The test system of assay [11] is 3MST-deficient E. coli cells. In kind it is cell-based. The following applies: diamide 25 μM, gentamicin 50 μg/ml for 5 min.
Setting [12] is: in the presence of 0.5 mM PAG + 0.05 mM AOAA.

Structures are written as SMILES. Where only a bound is given, the exact number is not on record here.

With `C#CCC(N)C(=O)O` (racemic) [PAG, D,L-propargylglycine], the “Effect on H2S production (PbS staining)” value in [1] is given as “greatly decreased or eliminated PbS staining”.
For the molecule `c1ccc(-c2ccccn2)nc1` [2,2′-dipyridyl], in assay [2] (dipyridyl 0.5 mM pretreatment for 1 min), the “Protection against peroxide (in words)” value was “protected them rapidly against peroxide”. Further, the “Effect on toxicity of Gm” value in assay [3] was “substantially decreased the toxicity of Gm”.
With `NOCC(=O)O` [AOAA, amino-oxyacetate], the “Effect on H2S production (PbS staining)” value in assay [1] is on record as “greatly decreased or eliminated PbS staining”.
As for `[Na+].[SH-]` [NaHS], the “Effect on hyper-induction of SOS by gentamicin” value in [4] is “completely suppressed the hyper-induction of SOS by gentamicin”. In addition, the “Inhibition of Fenton-mediated DNA damage” value in assay [5] is listed as “completely inhibited DNA damage”. The “Increase in resistance to peroxide” value in assay [2] (NaHS 200 μM pretreatment for 1 min) is reported as more than 20 times.
Turning to `CN[C@H](CC(C)C)C(=O)N[C@H]1C(=O)N[C@@H](CC(N)=O)C(=O)N[C@H]2C(=O)N[C@H]3C(=O)N[C@H](C(=O)N[C@H](C(=O)O)c4cc(O)cc(O)c4-c4cc3ccc4O)[C@H](O)c3ccc(c(Cl)c3)Oc3cc2cc(c3O[C@@H]2O[C@H](CO)[C@@H](O)[C@H](O)[C@H]2O[C@H]2C[C@](C)(N)[C@H](O)[C@H](C)O2)Oc2ccc(cc2Cl)[C@H]1O` [Vancomycin], the MIC in [6] (Enterococcus faecium, A2373, read-out: Minimum inhibitory concentration) is more than 64 µg/mL; in [7] (Pseudomonas aeruginosa, PAO1, read-out: Minimum inhibitory concentration), more than 64 µg/mL; in [8] (Streptococcus pneumoniae, ATCC49619, read-out: Minimum inhibitory concentration), 0.125 µg/mL; in assay [9] (Enterococcus faecalis, ATCC29212, read-out: Minimum inhibitory concentration), 2 µg/mL. Also, the Minimum inhibitory concentration in assay [6] (in the presence of 0.1 mM AOAA) is 2 µg/mL; in assay [6] (setting [12]), more than 64 µg/mL; in assay [6] (in the presence of 1 mM PAG) it was more than 64 µg/mL; in assay [7] (in the presence of 0.1 mM AOAA), more than 64 µg/mL; in assay [7] (setting [12]) it was more than 64 µg/mL; in assay [7] (in the presence of 1 mM PAG), more than 64 µg/mL. The Minimum inhibitory concentration in assay [8] (in the presence of 0.1 mM AOAA) came out at 0.125 µg/mL; in assay [8] (setting [12]), 0.125 µg/mL; in assay [8] (in the presence of 1 mM PAG), 0.125 µg/mL; in assay [9] (in the presence of 0.1 mM AOAA), 1 µg/mL; in [9] (setting [12]), 2 µg/mL; in [9] (in the presence of 1 mM PAG), 2 µg/mL. Further, the “ΔsseA inhibition of growth” value in assay [10] is recorded as −198.
As for `CN(C)C(=O)/N=N/C(=O)N(C)C` [diamide], the “Protection against Gm” value in assay [11] is on record as “protected 3MST mutant cells against Gm”.
